From patent publication US20250051293A1, “NOVEL OXADIAZOLE DERIVATIVE AND USE THEREOF” (CELROS BIOTECH, priority 2021, published 2025) come the findings set out here.

Structures are written as SMILES.

The target in one data set is T1, human NOX4 (Homo sapiens, UniProt Q9NPH5).
T1 construct: made in house; host or cells: transgenic Drosophila (Da-GAL4 driven UAS-hNOX4, dDuox RNAi background); membranes from homogenized flies
T1 sequence (Q9NPH5 1-578): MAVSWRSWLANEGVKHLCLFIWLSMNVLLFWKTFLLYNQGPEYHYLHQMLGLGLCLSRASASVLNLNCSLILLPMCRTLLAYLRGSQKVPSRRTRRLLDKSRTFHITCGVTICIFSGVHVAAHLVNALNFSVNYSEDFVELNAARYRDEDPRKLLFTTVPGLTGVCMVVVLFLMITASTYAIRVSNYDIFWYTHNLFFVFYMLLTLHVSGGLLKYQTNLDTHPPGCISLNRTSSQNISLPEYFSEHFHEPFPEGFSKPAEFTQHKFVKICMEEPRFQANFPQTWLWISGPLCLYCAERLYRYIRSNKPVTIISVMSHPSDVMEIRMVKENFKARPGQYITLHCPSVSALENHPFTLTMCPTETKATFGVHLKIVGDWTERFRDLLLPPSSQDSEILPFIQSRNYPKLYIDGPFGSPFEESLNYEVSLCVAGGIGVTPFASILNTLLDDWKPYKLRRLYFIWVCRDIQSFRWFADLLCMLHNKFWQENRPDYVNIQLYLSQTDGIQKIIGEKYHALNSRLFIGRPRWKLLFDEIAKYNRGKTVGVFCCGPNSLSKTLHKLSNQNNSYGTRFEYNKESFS
Put plainly: Lucigenin chemiluminescence assay, drosophila membranes expressing hNOX4. It counts as biochemical. The following applies: average of three repeats. The procedure:
(§1) Human NOX isozymes were provided from transgenic flies expressing human NOX isozymes from the daughterless (Da)-GAL4 promoter. The genotype of each fly line is shown below. • human NOX2:UAS-hNOX2/UAS-dDuox-RNAi; Da-GAL4/+ • human NOX4:UAS-hNOX4/UAS-dDuox-RNAi; Da-GAL4/+
(§2) Transgenic flies were homogenized in PBS containing protease inhibitors (aprotinin, leupeptin) to obtain drosophila membranes of each NOX isozyme. The membranes were incubated with the compounds (100 μM, 10 μM, 1 μM, 0.1 μM, 0.01 μM, 0.001 μM, and 0 μM) for 10 minutes in a shaker. Then, to the membranes, a mixture of 500 μM NADPH (R-nicotinamide adenine dinucleotide 2′-phosphate reduced tetrasodium salt hydrate; Sigma-Aldrich) and 400 μM lucigenin (N,N′-dimethyl-9,9-biacridinium dinitrate; Sigma-Aldrich) in 1× HEPES (4-(2-hydroxyethyl)-1-piperazineethanesulfonic acid) buffer was added. Lucigenin chemiluminescence was detected at 1-minute intervals for 10 minutes using a multimode microplate reader (SpectraMax iD3, Molecular Devices). IC50 values were calculated with Graph-Pad Prism 5 (GraphPad Software).
(§3) The lucigenin chemiluminescence assay was performed with drosophila membranes expressing hNOX1, hNOX2, and hNOX4. The assay was repeated three times and the IC50 values were averaged.

The target of another data set is T2, human NOX2 (Homo sapiens, UniProt P04839).
T2 construct: made in house; host or cells: transgenic Drosophila (Da-GAL4 driven UAS-hNOX2, dDuox RNAi background); membranes from homogenized flies
T2 sequence (P04839 2-570 limits assumed): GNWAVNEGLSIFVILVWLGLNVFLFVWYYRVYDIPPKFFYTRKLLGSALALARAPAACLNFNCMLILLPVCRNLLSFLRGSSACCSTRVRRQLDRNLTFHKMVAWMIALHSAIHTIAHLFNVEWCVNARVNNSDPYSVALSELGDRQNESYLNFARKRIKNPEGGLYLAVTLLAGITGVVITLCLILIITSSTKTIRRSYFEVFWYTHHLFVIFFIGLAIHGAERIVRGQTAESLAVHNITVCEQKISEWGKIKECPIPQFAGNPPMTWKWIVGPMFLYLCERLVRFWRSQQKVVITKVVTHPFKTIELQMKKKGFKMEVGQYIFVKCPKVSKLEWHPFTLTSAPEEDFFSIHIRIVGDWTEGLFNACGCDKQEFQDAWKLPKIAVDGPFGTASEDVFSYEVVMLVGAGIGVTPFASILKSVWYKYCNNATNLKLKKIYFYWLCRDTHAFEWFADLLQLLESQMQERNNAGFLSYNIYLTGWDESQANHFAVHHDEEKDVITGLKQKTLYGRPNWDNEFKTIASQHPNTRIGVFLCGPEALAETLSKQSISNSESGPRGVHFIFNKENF
Put plainly: Lucigenin chemiluminescence assay, drosophila membranes expressing hNOX2. It counts as biochemical. Conditions: average of three repeats. Here is the method:
as §1, §2, §3

Data set [1] is described as follows: Cytotoxicity experiment (MTT assay) HepG2. The data set is classed as cell-based. Conditions: human, HepG2 cells. Here is the method:
HepG2 (human hepatocellular carcinoma) and HT-22 (mouse hippocampal neuronal cell line) were seeded at densities of 1×10^5 or 1.5×10^4 per well in a 48-well plate and incubated for at least 12 hours, then treated with compounds of Example 1 and Example 2 at various concentrations (0 nM, 1 nM, 10 nM, 100 nM, 1000 nM, 10000 nM, 100000 nM, and 1000000 nM) and incubated for 24 hours. MTT solution (Thiazolyl Blue Tetrazolium Bromide 2 mg/ml) was subsequently added at 30 μl per well. After incubation for 4 hours, the culture medium containing the MTT solution was removed and 300 μl of DMSO was added to dissolve the MTT-formazan. 100 μl of the solution in each well was transferred to a 96-well plate and the absorbance was measured at 570 nm. IC50 values were calculated with Graph-Pad Prism 5 (GraphPad Software). The cell viability of the groups treated with the compounds of Example 1 and Example 2 at each concentration was determined relative to control group in which HepG2 cells were treated with DMSO alone, in at least five replicates.
A general note: Tetrazolium assays rely on reduction of a dye to a coloured formazan, in cell work by metabolically active cells.

Data set [2] can be described thus: Metabolic stability in human liver microsomes. It counts as in vitro ADME. Conditions: human liver microsomes 0.5 mg/ml, 1 μM, 30 minutes, 37° C., NADPH. Here is the method:
The stability of a drug may be predicted by using liver microsomes to determine the extent to which the drug is metabolized in the liver. […] Thus, a metabolic stability verification experiment was performed on the oxadiazole derivatives according to The present disclosure.
Specifically, sample treatment human liver microsomes (0.5 mg/ml), 0.1 M phosphate buffer (pH 7.4), and test compound at a concentration of 1 μM were added, and the mixture was pre-incubated at 37° C. for 5 minutes, followed by addition of NADPH Regeneration system solution and incubation at 37° C. for 30 minutes. An acetonitrile solution containing an internal standard (chlorpropamide) was then added to terminate the reaction, followed by centrifugation for 5 minutes (14,000 rpm, 4° C.). Then, the supernatant was injected into the LC-MS/MS system to analyze the substrate drug to evaluate the metabolic stability of the two compounds.
The HPLC column was an Acquity UPLC BEH Amide column (2.1×100 mm, 1.7 μm particle size; Waters, Ireland). The mobile phases were distilled water containing 0.1% formic acid (A) and acetonitrile containing 0.1% formic acid (B). Data analysis was performed using Analyst software (version 1.6.3).
(Liver microsomes are vesicles of endoplasmic reticulum, rich in cytochrome P450 enzymes.)

Usually IC50 stands for the concentration at which inhibition is half-maximal. Lower therefore signals higher potency. Consider `O=C(Nc1nnc(-c2cccc(Cl)c2)o1)c1cc(F)cc(C(F)(F)F)c1` [Example 1, N-(5-(3-chlorophenyl)-1,3,4-oxadiazol-2-yl)-3-fluoro-5-(trifluoromethyl)benzamide], for which the values for the IC50 at human NOX4 and against human NOX2 were 0.16 µM and 0.09 µM, respectively. This compound came in with an IC50 at 24 h in data set [1] of 4.2 µM. Besides, the “Human (% ) remaining, microsomal stability” value in data set [2] is reported as 81.7%.

Turning to `O=C(Nc1nnc(-c2ccccc2)o1)c1ccc(F)c(C(F)(F)F)c1` [Example 2, 4-fluoro-N-(5-phenyl-1,3,4-oxadiazol-2-yl)-3-(trifluoromethyl)benzamide], the IC50 is 0.44 µM against human NOX4 and 0.26 µM against human NOX2. Moreover, the IC50 at 24 h in data set [1] was 1100 µM. The “Human (% ) remaining, microsomal stability” value in data set [2] is on record as above 100%.
